# Laboratory results as given in patent publication US11827596B2, “Thyromimetics” (Autobahn Therapeutics, Inc., priority 2018, dated 2023).
# Molecular target: T1, TRβ (Homo sapiens, UniProt P10828)
# T1 construct: expressed in transfected cells; host or cells: HEK293-derived reporter cells
# T1 sequence (P10828 217-461 limits assumed): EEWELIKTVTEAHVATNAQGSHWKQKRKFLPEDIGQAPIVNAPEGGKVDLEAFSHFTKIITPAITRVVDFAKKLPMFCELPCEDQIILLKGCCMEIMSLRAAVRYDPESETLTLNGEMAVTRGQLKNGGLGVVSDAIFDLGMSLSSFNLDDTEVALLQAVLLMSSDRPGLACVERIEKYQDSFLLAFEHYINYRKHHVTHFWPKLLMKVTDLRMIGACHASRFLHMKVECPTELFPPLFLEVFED
# Assay: Thyroid-hormone reporter-gene assay (Gal4-TR hybrid, luciferase), TRβ
# Format: cell-based
# Details: EC50 (TRα)*T3-EC50 (TRβ)/EC50 (TRβ)*T3-EC50 (TRα), T3 in the same experiment
# Procedure: (§1) Reporter cells used in the assays express a TR-receptor hybrid (either TRα or […]) in which the native N-terminal DNA binding domain (DBD) has been replaced with that of the yeast Gal4 DBD. The reporter gene, firefly luciferase, is functionally linked to the Gal4 upstream activation sequence (UAS). Both cell lines were derived from human embryonic kidney (HEK293).
# (§2) Step 1: A suspension of reporter cells was prepared in cell recovery medium containing 10% charcoal-stripped FBS, and dispensed into assay plates. The plates were pre-incubated for 6 hours in a cell culture incubator (37° C./5% CO2/85% humidity).
# (§3) These Intermediate Stocks were subsequently diluted directly into compound screening medium containing 10% charcoal-stripped FBS to generate “2×-concentration” treatment media (containing 0.2, 0.4 or 0.8% DMSO).
# (§4) Step 3: At the end of the pre-incubation period, culture media were discarded from the assay plates, and all wells received 100 μl of compound screening medium. 100 μl of each of the previously prepared “2×-concentration” treatment media were dispensed into duplicate assay wells, thereby achieving the desired final treatment concentrations. The final concentration of DMSO in all assay wells was 0.1, 0.2 or 0.4%. Assay plates were incubated for 24 hr in a cell culture incubator (37° C./5% CO2/85% humidity).
# (§5) Step 4: At the 24 h assay endpoint, treatment media were discarded and 100 μl/well of luciferase detection reagent was added. Relative luminometer units (RLUs) were quantified from each assay well.
row,T3-benchmarked selectivity index (T3-SI),SMILES
1,++ (3×<T3-SI≤30×),"CC(C)c1cc(Cc2c(Cl)cc(OCC(=O)O)cc2C(F)(F)F)ccc1O [Compound 18, 2-(3-chloro-4-(4-hydroxy-3-isopropylbenzyl)-5-(trifluoromethyl)phenoxy)acetic acid]"
2,++ (3×<T3-SI≤30×),"Cc1cc(OCC(=O)O)cc(Cl)c1Cc1ccc(O)c(C(C)C)c1 [Compound 2, 2-(3-chloro-4-(4-hydroxy-3-isopropylbenzyl)-5-methylphenoxy)acetic acid]"
3,++ (3×<T3-SI≤30×),"CCc1cc(OCC(=O)O)cc(Cl)c1Cc1ccc(O)c(C(C)C)c1 [Compound 8, 2-(3-chloro-5-ethyl-4-(4-hydroxy-3-isopropylbenzyl)phenoxy)acetic acid]"
4,++ (3×<T3-SI≤30×),"Cc1cc(OCC(=O)O)cc(C(F)(F)F)c1Cc1ccc(O)c(C(C)C)c1 [Compound 11, 2-(4-(4-hydroxy-3-isopropylbenzyl)-3-methyl-5-(trifluoromethyl)phenoxy)acetic acid]"

# More lines, now with the values behind:
row,SMILES,T3-benchmarked selectivity index (T3-SI)
1,"C=C(C)c1cc(OCC(=O)O)cc(Cl)c1Cc1ccc(O)c(C(C)C)c1 [Compound 30, 2-(3-chloro-4-(4-hydroxy-3-isopropylbenzyl)-5-(prop-1-en-2-yl)phenoxy)acetic acid]",++ (3×<T3-SI≤30×)
2,"C=C(C)c1cc(OCC(=O)O)cc(C)c1Cc1ccc(O)c(C(C)C)c1 [Compound 20, 2-(4-(4-hydroxy-3-isopropylbenzyl)-3-methyl-5-(prop-1-en-2-yl)phenoxy)acetic acid]",++ (3×<T3-SI≤30×)
3,"CCCc1cc(OCC(=O)O)cc(C)c1Cc1ccc(O)c(C(C)C)c1 [Compound 25, 2-(4-(4-hydroxy-3-isopropylbenzyl)-3-methyl-5-propylphenoxy)acetic acid]",++ (3×<T3-SI≤30×)
4,"CC(C)c1cc(Cc2c(Cl)cc(OCC(=O)O)cc2C(C)C)ccc1O [Compound 31, 2-(3-chloro-4-(4-hydroxy-3-isopropylbenzyl)-5-isopropylphenoxy)acetic acid]",++ (3×<T3-SI≤30×)
5,"C/C=C/c1cc(OCC(=O)O)cc(C)c1Cc1ccc(O)c(C(C)C)c1 [Compound 23, (E)-2-(4-(4-hydroxy-3-isopropylbenzyl)-3-methyl-5-(prop-1-enyl)phenoxy)acetic acid]",++ (3×<T3-SI≤30×)
6,"CCc1cc(OCC(=O)O)cc(C)c1Cc1ccc(O)c(C(C)C)c1 [Compound 16, 2-(3-ethyl-4-(4-hydroxy-3-isopropylbenzyl)-5-methylphenoxy)acetic acid]",++ (3×<T3-SI≤30×)
7,"Cc1cc(OCC(=O)O)cc(C(C)C)c1Cc1ccc(O)c(C(C)C)c1 [Compound 21, 2-(4-(4-hydroxy-3-isopropylbenzyl)-3-isopropyl-5-methylphenoxy)acetic acid]",++ (3×<T3-SI≤30×)
8,"Cc1cc(OCC(=O)O)cc(C2CC2)c1Cc1ccc(O)c(C(C)C)c1 [Compound 27, 2-(3-cyclopropyl-4-(4-hydroxy-3-isopropylbenzyl)-5-methylphenoxy)acetic acid]",++ (3×<T3-SI≤30×)
9,"Cc1cc(OCC(=O)O)cc(Br)c1Cc1ccc(O)c(C(C)C)c1 [Compound 5, 2-(3-bromo-4-(4-hydroxy-3-isopropylbenzyl)-5-methylphenoxy)acetic acid]",++ (3×<T3-SI≤30×)

# Same assay, conditions: HEK293-derived reporter cells, 24 hr incubation
row,EC50 [µM],SMILES
1,0.01 to 0.1,"CC(C)c1cc(Cc2c(Cl)cc(OCC(=O)O)cc2C(F)(F)F)ccc1O [Compound 18, 2-(3-chloro-4-(4-hydroxy-3-isopropylbenzyl)-5-(trifluoromethyl)phenoxy)acetic acid]"
2,0.1 to 1,"Cc1cc(OCC(=O)O)cc(Cl)c1Cc1ccc(O)c(C(C)C)c1 [Compound 2, 2-(3-chloro-4-(4-hydroxy-3-isopropylbenzyl)-5-methylphenoxy)acetic acid]"
3,0.01 to 0.1,"CCc1cc(OCC(=O)O)cc(Cl)c1Cc1ccc(O)c(C(C)C)c1 [Compound 8, 2-(3-chloro-5-ethyl-4-(4-hydroxy-3-isopropylbenzyl)phenoxy)acetic acid]"
4,0.01 to 0.1,"Cc1cc(OCC(=O)O)cc(C(F)(F)F)c1Cc1ccc(O)c(C(C)C)c1 [Compound 11, 2-(4-(4-hydroxy-3-isopropylbenzyl)-3-methyl-5-(trifluoromethyl)phenoxy)acetic acid]"

# Continued, compound first:
row,SMILES,EC50 [µM]
1,"C=C(C)c1cc(OCC(=O)O)cc(Cl)c1Cc1ccc(O)c(C(C)C)c1 [Compound 30, 2-(3-chloro-4-(4-hydroxy-3-isopropylbenzyl)-5-(prop-1-en-2-yl)phenoxy)acetic acid]",0.01 to 0.1
2,"C=C(C)c1cc(OCC(=O)O)cc(C)c1Cc1ccc(O)c(C(C)C)c1 [Compound 20, 2-(4-(4-hydroxy-3-isopropylbenzyl)-3-methyl-5-(prop-1-en-2-yl)phenoxy)acetic acid]",0.01 to 0.1
3,"CCCc1cc(OCC(=O)O)cc(C)c1Cc1ccc(O)c(C(C)C)c1 [Compound 25, 2-(4-(4-hydroxy-3-isopropylbenzyl)-3-methyl-5-propylphenoxy)acetic acid]",0.1 to 1
4,"CC(C)c1cc(Cc2c(Cl)cc(OCC(=O)O)cc2C(C)C)ccc1O [Compound 31, 2-(3-chloro-4-(4-hydroxy-3-isopropylbenzyl)-5-isopropylphenoxy)acetic acid]",< 0.01
5,"C/C=C/c1cc(OCC(=O)O)cc(C)c1Cc1ccc(O)c(C(C)C)c1 [Compound 23, (E)-2-(4-(4-hydroxy-3-isopropylbenzyl)-3-methyl-5-(prop-1-enyl)phenoxy)acetic acid]",0.1 to 1
6,"CCc1cc(OCC(=O)O)cc(C)c1Cc1ccc(O)c(C(C)C)c1 [Compound 16, 2-(3-ethyl-4-(4-hydroxy-3-isopropylbenzyl)-5-methylphenoxy)acetic acid]",0.01 to 0.1
7,"Cc1cc(OCC(=O)O)cc(C(C)C)c1Cc1ccc(O)c(C(C)C)c1 [Compound 21, 2-(4-(4-hydroxy-3-isopropylbenzyl)-3-isopropyl-5-methylphenoxy)acetic acid]",0.01 to 0.1
8,"Cc1cc(OCC(=O)O)cc(C2CC2)c1Cc1ccc(O)c(C(C)C)c1 [Compound 27, 2-(3-cyclopropyl-4-(4-hydroxy-3-isopropylbenzyl)-5-methylphenoxy)acetic acid]",0.1 to 1
9,"Cc1cc(OCC(=O)O)cc(Br)c1Cc1ccc(O)c(C(C)C)c1 [Compound 5, 2-(3-bromo-4-(4-hydroxy-3-isopropylbenzyl)-5-methylphenoxy)acetic acid]",0.01 to 0.1

# Same assay, conditions: TR screening
row,SMILES,functional EC50 (TRβ)
1,"Cc1cc(OCC(=O)O)cc(Br)c1Cc1ccc(O)c(C(C)C)c1 [Compound 5, 2-(3-bromo-4-(4-hydroxy-3-isopropylbenzyl)-5-methylphenoxy)acetic acid]",equipotent with the di-bromo analog

# Molecular target: T2, TRα (Homo sapiens, UniProt P10827)
# T2 construct: The firefly luciferase reporter under the Gal4 UAS is a separate reporter gene
# T2 sequence (P10827 163-410 isoform P10827-2 limits assumed): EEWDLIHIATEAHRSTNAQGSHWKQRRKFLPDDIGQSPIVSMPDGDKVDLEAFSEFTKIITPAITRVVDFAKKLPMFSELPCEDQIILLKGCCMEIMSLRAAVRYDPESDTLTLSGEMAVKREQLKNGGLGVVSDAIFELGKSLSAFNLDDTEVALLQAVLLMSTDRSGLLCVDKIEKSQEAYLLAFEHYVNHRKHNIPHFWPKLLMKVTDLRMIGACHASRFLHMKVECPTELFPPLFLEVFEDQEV
# Assay: Thyroid-hormone reporter-gene assay (Gal4-TR hybrid, luciferase), TRα
# Format: cell-based
# Details: HEK293-derived reporter cells, 24 hr incubation
# Procedure: as §1, §2, §3, §4, §5
row,EC50 [µM],SMILES
1,0.01 to 0.1,"CC(C)c1cc(Cc2c(Cl)cc(OCC(=O)O)cc2C(F)(F)F)ccc1O [Compound 18, 2-(3-chloro-4-(4-hydroxy-3-isopropylbenzyl)-5-(trifluoromethyl)phenoxy)acetic acid]"
2,0.1 to 1,"Cc1cc(OCC(=O)O)cc(Cl)c1Cc1ccc(O)c(C(C)C)c1 [Compound 2, 2-(3-chloro-4-(4-hydroxy-3-isopropylbenzyl)-5-methylphenoxy)acetic acid]"
3,0.1 to 1,"CCc1cc(OCC(=O)O)cc(Cl)c1Cc1ccc(O)c(C(C)C)c1 [Compound 8, 2-(3-chloro-5-ethyl-4-(4-hydroxy-3-isopropylbenzyl)phenoxy)acetic acid]"
4,0.1 to 1,"Cc1cc(OCC(=O)O)cc(C(F)(F)F)c1Cc1ccc(O)c(C(C)C)c1 [Compound 11, 2-(4-(4-hydroxy-3-isopropylbenzyl)-3-methyl-5-(trifluoromethyl)phenoxy)acetic acid]"

# Second part, the compound before the results:
row,SMILES,EC50 [µM]
1,"C=C(C)c1cc(OCC(=O)O)cc(Cl)c1Cc1ccc(O)c(C(C)C)c1 [Compound 30, 2-(3-chloro-4-(4-hydroxy-3-isopropylbenzyl)-5-(prop-1-en-2-yl)phenoxy)acetic acid]",0.1 to 1
2,"C=C(C)c1cc(OCC(=O)O)cc(C)c1Cc1ccc(O)c(C(C)C)c1 [Compound 20, 2-(4-(4-hydroxy-3-isopropylbenzyl)-3-methyl-5-(prop-1-en-2-yl)phenoxy)acetic acid]",0.1 to 1
3,"CCCc1cc(OCC(=O)O)cc(C)c1Cc1ccc(O)c(C(C)C)c1 [Compound 25, 2-(4-(4-hydroxy-3-isopropylbenzyl)-3-methyl-5-propylphenoxy)acetic acid]",0.1 to 1
4,"CC(C)c1cc(Cc2c(Cl)cc(OCC(=O)O)cc2C(C)C)ccc1O [Compound 31, 2-(3-chloro-4-(4-hydroxy-3-isopropylbenzyl)-5-isopropylphenoxy)acetic acid]",0.01 to 0.1
5,"C/C=C/c1cc(OCC(=O)O)cc(C)c1Cc1ccc(O)c(C(C)C)c1 [Compound 23, (E)-2-(4-(4-hydroxy-3-isopropylbenzyl)-3-methyl-5-(prop-1-enyl)phenoxy)acetic acid]",> 1
6,"CCc1cc(OCC(=O)O)cc(C)c1Cc1ccc(O)c(C(C)C)c1 [Compound 16, 2-(3-ethyl-4-(4-hydroxy-3-isopropylbenzyl)-5-methylphenoxy)acetic acid]",0.1 to 1
7,"Cc1cc(OCC(=O)O)cc(C(C)C)c1Cc1ccc(O)c(C(C)C)c1 [Compound 21, 2-(4-(4-hydroxy-3-isopropylbenzyl)-3-isopropyl-5-methylphenoxy)acetic acid]",0.01 to 0.1
8,"Cc1cc(OCC(=O)O)cc(C2CC2)c1Cc1ccc(O)c(C(C)C)c1 [Compound 27, 2-(3-cyclopropyl-4-(4-hydroxy-3-isopropylbenzyl)-5-methylphenoxy)acetic acid]",> 1
9,"Cc1cc(OCC(=O)O)cc(Br)c1Cc1ccc(O)c(C(C)C)c1 [Compound 5, 2-(3-bromo-4-(4-hydroxy-3-isopropylbenzyl)-5-methylphenoxy)acetic acid]",0.01 to 0.1

# Test system: not listed separately
# Assay: Tissue distribution study, brain concentration of parent acid after prodrug dosing
# Format: in vivo, male C57Bl/6 mice
# Details: 1 hr after SC dosing (0.1 mg/kg) of the prodrug; parent acid measured; compared to dichloro-prodrug and Sob-AM2 (FIG. 2)
# Procedure: For tissue concentration studies in male C57Bl/6 mice, test compounds are formulated as NMP/solutol/PBS solution, at a concentration of 0.05 mg/mL and dosed at 2 mL/kg with the targeted dose of 0.100 mg/kg via SC injection or oral dosing. […] Tissue homogenates and plasma concentrations of test compounds are determined using LC-MS/MS with lower limits of quantitation of 0.0200 ng/mL or 0.100 ng/g. The pharmacokinetic parameters are determined by non-compartmental methods using WinNonlin.
# FIG. 2 depicts brain levels of Compound 2 recorded 1 hr after SC dosing (0.1 mg/kg) of the corresponding prodrug Compound 3.
row,SMILES,brain concentration of the parent acid
1,"CNC(=O)COc1cc(C)c(Cc2ccc(O)c(C(C)C)c2)c(Cl)c1 [Compound 3, 2-(3-chloro-4-(4-hydroxy-3-isopropylbenzyl)-5-methylphenoxy)-N-methylacetamide]",dramatic increase in brain concentration of the parent acid
